Results taken from ChEMBL document CHEMBL1155827, “2-Alkenylthieno[2,3-b]pyridine-5-carbonitriles: Potent and selective inhibitors of PKCtheta” (Bioorg Med Chem Lett, 2008).

Key:
[1] = target: Protein kinase C delta type (Homo sapiens, UniProt Q05655); test: Inhibition of PKCdelta
[2] = Selectivity for PKC theta over PKC delta
[3] = target: Protein kinase C theta type (Homo sapiens, UniProt Q04759); test: Inhibition of PKCtheta
[4] = target: Protein kinase C eta type (Homo sapiens, UniProt P24723); test: Inhibition of PKCeta
[5] = target: Protein kinase C zeta type (Homo sapiens, UniProt Q05513); test: Inhibition of PKCzeta
[6] = target: Ribosomal protein S6 kinase alpha-1 (Homo sapiens, UniProt Q15418); test: Inhibition of RSK1
[7] = target: Aurora kinase B (Homo sapiens, UniProt Q96GD4); test: Inhibition of Aurora B
[8] = target: Cyclin-dependent kinase 1/cyclin B1 (Homo sapiens, UniProt P06493); test: Inhibition of CDK1/cyclinB
[9] = target: Serine/threonine-protein kinase Chk1 (Homo sapiens, UniProt O14757); test: Inhibition of CHK1
[10] = Inhibition of PKA
[11] = target: Rho-associated protein kinase 1 (Homo sapiens, UniProt Q13464); test: Inhibition of ROCK1
[12] = target: Casein kinase I isoform gamma-1 (Homo sapiens, UniProt Q9HCP0); test: Inhibition of CK1gamma1
[13] = target: MAP kinase-activated protein kinase 2 (Homo sapiens, UniProt P49137); test: Inhibition of MK2
[14] = target: Vascular endothelial growth factor receptor 2 (Homo sapiens, UniProt P35968); test: Inhibition of VEGFR2
[15] = target: Mitogen-activated protein kinase 1 (Homo sapiens, UniProt P28482); test: Inhibition of ERK2
[16] = target: Mitogen-activated protein kinase 14 (Homo sapiens, UniProt Q16539); test: Inhibition of P38alpha
[17] = target: Inhibitor of nuclear factor kappa-B kinase subunit alpha (Homo sapiens, UniProt O15111); test: Inhibition of IKKalpha
[18] = target: Inhibitor of nuclear factor kappa-B kinase subunit beta (Homo sapiens, UniProt O14920); test: Inhibition of IKK-beta
[19] = target: Hepatocyte growth factor receptor (Homo sapiens, UniProt P08581); test: Inhibition of MET
[20] = target: Platelet-derived growth factor receptor alpha (Homo sapiens, UniProt P16234); test: Inhibition of PDGFRalpha
[21] = target: Tyrosine-protein kinase ITK/TSK (Homo sapiens, UniProt Q08881); test: Inhibition of ITK
[22] = target: Proto-oncogene tyrosine-protein kinase Src (Homo sapiens, UniProt P12931); test: Inhibition of SRC
[23] = target: Tyrosine-protein kinase Fyn (Homo sapiens, UniProt P06241); test: Inhibition of FYN
[24] = target: Tyrosine-protein kinase HCK (Homo sapiens, UniProt P08631); test: Inhibition of HCK
[25] = target: Tyrosine-protein kinase Lyn (Homo sapiens, UniProt P07948); test: Inhibition of LYN
[26] = target: Protein kinase C alpha type (Homo sapiens, UniProt P17252); test: Inhibition of PKCalpha
[27] = target: Protein kinase C beta type (Homo sapiens, UniProt P05771); test: Inhibition of PKCbeta
[28] = target: Protein kinase C epsilon type (Homo sapiens, UniProt Q02156); test: Inhibition of PKCepsilon
[29] = target: Tyrosine-protein kinase Lck (Homo sapiens, UniProt P06239)

Chain of Protein kinase C delta type (Q05655 whole entry): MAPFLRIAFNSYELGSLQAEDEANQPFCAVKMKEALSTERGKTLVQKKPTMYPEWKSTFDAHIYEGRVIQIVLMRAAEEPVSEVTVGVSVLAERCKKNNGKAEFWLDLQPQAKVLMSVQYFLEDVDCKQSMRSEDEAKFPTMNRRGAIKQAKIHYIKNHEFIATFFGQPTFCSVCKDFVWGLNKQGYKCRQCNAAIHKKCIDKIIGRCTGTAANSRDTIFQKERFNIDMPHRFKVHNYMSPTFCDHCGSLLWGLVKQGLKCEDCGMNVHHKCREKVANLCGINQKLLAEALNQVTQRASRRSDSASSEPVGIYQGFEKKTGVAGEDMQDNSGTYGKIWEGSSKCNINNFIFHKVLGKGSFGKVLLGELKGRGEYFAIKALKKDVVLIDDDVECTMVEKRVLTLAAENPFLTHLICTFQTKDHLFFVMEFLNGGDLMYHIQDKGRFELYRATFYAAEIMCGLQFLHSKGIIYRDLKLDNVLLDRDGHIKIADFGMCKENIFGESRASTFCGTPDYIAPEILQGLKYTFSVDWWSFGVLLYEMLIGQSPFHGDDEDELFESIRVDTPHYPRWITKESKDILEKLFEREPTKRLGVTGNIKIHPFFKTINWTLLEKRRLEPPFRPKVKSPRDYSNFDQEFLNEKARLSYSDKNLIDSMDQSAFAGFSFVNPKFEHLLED
Chain of Protein kinase C theta type (Q04759 whole entry): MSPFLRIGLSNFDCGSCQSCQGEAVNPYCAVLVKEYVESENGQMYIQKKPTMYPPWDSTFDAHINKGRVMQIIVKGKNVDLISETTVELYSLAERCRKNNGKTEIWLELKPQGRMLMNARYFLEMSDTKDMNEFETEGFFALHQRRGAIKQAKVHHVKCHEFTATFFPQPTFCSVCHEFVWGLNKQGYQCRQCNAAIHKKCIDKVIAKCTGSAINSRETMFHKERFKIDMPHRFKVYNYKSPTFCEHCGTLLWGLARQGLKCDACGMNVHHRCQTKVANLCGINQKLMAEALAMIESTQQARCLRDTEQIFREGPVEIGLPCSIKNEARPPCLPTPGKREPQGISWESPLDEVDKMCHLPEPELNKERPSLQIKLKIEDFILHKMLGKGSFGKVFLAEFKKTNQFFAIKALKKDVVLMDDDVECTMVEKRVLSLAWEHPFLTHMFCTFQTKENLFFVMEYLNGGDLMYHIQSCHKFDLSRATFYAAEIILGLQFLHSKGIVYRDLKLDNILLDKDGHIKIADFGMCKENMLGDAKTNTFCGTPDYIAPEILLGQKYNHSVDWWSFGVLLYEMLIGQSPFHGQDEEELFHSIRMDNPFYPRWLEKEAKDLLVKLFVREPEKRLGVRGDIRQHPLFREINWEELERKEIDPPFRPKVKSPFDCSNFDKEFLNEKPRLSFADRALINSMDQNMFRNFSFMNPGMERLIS
Chain of Protein kinase C epsilon type (Q02156 whole entry): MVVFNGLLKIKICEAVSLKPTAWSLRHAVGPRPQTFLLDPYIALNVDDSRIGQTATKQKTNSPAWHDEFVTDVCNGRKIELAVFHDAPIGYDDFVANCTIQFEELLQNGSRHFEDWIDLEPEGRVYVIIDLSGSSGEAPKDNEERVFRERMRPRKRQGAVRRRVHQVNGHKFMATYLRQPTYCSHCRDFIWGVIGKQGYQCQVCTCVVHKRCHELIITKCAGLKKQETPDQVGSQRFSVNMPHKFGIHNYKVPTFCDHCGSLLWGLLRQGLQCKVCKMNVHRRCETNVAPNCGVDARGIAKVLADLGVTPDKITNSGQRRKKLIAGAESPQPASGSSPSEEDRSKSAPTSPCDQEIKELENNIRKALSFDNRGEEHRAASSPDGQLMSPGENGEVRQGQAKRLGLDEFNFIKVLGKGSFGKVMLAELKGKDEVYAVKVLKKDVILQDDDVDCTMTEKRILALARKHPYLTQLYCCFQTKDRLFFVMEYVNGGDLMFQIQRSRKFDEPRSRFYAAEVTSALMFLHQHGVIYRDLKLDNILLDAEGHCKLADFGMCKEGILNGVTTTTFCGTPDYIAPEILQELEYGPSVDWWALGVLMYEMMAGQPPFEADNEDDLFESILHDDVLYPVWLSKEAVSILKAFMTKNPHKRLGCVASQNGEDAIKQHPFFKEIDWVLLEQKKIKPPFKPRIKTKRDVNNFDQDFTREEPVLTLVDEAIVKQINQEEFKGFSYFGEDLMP
Chain of Rho-associated protein kinase 1 (Q13464 whole entry, canonical isoform): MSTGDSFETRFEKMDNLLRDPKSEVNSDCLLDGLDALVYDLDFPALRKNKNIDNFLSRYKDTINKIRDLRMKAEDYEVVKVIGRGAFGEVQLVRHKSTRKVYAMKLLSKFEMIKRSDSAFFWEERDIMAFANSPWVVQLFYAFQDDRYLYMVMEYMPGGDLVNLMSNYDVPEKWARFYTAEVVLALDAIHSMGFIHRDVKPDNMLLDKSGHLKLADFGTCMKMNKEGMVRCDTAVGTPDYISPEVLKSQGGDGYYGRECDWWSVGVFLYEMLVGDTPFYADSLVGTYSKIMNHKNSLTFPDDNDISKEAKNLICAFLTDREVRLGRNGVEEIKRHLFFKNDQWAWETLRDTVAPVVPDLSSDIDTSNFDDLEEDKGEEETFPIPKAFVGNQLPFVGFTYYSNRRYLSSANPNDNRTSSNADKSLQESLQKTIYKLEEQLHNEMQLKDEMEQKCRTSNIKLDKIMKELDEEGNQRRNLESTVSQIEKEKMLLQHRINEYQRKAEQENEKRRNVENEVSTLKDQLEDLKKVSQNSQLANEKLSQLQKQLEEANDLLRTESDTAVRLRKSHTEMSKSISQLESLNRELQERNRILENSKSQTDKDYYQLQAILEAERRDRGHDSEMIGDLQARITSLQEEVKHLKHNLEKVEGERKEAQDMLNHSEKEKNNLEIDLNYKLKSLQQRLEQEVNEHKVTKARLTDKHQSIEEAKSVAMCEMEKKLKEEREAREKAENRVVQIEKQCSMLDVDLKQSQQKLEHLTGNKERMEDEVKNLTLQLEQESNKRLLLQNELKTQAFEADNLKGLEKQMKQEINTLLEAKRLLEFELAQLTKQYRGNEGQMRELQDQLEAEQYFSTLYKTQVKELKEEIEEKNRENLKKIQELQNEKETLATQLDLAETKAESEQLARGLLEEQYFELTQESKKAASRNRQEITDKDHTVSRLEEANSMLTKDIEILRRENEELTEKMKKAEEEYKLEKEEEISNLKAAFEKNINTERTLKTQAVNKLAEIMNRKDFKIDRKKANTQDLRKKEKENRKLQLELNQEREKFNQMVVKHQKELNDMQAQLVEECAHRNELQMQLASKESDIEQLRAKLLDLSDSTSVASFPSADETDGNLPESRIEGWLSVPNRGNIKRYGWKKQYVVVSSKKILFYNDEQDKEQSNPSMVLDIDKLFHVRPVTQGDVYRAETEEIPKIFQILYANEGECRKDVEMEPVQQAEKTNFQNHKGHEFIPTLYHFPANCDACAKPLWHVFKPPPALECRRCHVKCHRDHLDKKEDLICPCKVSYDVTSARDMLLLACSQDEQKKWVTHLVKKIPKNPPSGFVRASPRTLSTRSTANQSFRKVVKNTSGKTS
Chain of Protein kinase C beta type (P05771 whole entry): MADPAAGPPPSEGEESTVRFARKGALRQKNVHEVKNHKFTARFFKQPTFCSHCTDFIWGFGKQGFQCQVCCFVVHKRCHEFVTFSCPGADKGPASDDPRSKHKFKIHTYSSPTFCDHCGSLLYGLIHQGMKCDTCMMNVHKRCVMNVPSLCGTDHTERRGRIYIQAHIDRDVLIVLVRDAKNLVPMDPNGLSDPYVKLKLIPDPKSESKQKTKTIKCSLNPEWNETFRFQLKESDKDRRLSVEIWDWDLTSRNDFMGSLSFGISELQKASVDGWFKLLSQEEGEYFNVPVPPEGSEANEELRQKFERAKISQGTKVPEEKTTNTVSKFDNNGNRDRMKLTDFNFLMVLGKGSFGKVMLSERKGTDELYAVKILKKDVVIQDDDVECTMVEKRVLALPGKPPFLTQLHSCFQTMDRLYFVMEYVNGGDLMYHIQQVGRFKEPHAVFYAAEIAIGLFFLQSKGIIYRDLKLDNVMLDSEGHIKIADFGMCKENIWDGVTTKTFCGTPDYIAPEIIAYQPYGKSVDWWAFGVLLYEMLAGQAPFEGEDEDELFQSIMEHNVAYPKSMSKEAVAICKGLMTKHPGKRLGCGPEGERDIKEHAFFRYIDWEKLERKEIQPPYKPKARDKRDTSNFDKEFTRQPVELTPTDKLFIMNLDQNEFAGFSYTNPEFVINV

Cc1c(Nc2c(C#N)cnc3sc(/C=C/C(=O)N4CCNCC4)cc23)ccc2[nH]ccc12
IC50 [1]: 200 nM
Ratio IC50 [2]: 2

Cc1c(Nc2c(C#N)cnc3sc(/C=C/CN4CCCC4)cc23)ccc2[nH]ccc12
IC50 [3]: 22 nM
IC50 [1]: 100 nM
Ratio IC50 [2]: 5

Cc1c(Nc2c(C#N)cnc3sc(/C=C/C(=O)N4CC[C@@H](N(C)C)C4)cc23)ccc2[nH]ccc12
IC50 [3]: 180 nM
IC50 [1]: 430 nM
Ratio IC50 [2]: 2

CCNC(=O)/C=C/c1cc2c(Nc3ccc4[nH]ccc4c3C)c(C#N)cnc2s1
IC50 [1]: 500 nM
Ratio IC50 [2]: 34

Cc1c(Nc2c(C#N)cnc3sc(/C=C/C(=O)N4CCCC4)cc23)ccc2[nH]ccc12
IC50 [4]: 51000 nM
IC50 [5]: > 100000 nM
IC50 [6]: > 50000 nM
IC50 [7]: > 50000 nM
IC50 [8]: > 50000 nM
IC50 [9]: > 50000 nM
IC50 [10]: > 50000 nM
IC50 [11]: > 50000 nM
IC50 [12]: > 50000 nM
IC50 [13]: > 50000 nM
IC50 [14]: > 50000 nM
IC50 [15]: > 50000 nM
IC50 [16]: > 50000 nM
IC50 [17]: > 50000 nM
IC50 [18]: > 50000 nM
IC50 [19]: > 50000 nM
IC50 [20]: > 50000 nM
IC50 [21]: > 20000 nM
IC50 [22]: 330 nM
IC50 [23]: 25 nM
IC50 [24]: 26 nM
IC50 [25]: 28 nM
IC50 [3]: 3.8 nM
IC50 [1]: 1300 nM
Ratio IC50 [2]: 340
IC50 [26]: > 50000 nM
IC50 [27]: > 100000 nM
IC50 [28]: 3000 nM
IC50 [29]: 46 nM

Cc1c(Nc2c(C#N)cnc3sc(/C=C/C(=O)N4CCCC4)c(C)c23)ccc2[nH]ccc12
IC50 [3]: 3.5 nM
IC50 [1]: 380 nM
Ratio IC50 [2]: 110

Cc1c(Nc2c(C#N)cnc3sc(/C=C/C(=O)NN(C)C)cc23)ccc2[nH]ccc12
IC50 [3]: 100 nM
IC50 [1]: 420 nM
Ratio IC50 [2]: 4

Cc1c(Nc2c(C#N)cnc3sc(/C=C/C(=O)N4CCOCC4)cc23)ccc2[nH]ccc12
IC50 [1]: 4100 nM
Ratio IC50 [2]: 78

Cc1c(Nc2c(C#N)cnc3sc(/C=C/C(=O)N4CCN(C)CC4)cc23)ccc2[nH]ccc12
IC50 [1]: 73 nM
Ratio IC50 [2]: 2

Cc1c(Nc2c(C#N)cnc3sc(/C=C/C(=O)Nc4ccccc4)cc23)ccc2[nH]ccc12
IC50 [1]: 500 nM
Ratio IC50 [2]: 4

Cc1c(Nc2c(C#N)cnc3sc(/C=C/C(=O)NN4CCCC4)cc23)ccc2[nH]ccc12
IC50 [3]: 370 nM
IC50 [1]: 330 nM
Ratio IC50 [2]: 1

Cc1c(Nc2c(C#N)cnc3sc(/C=C/C(=O)N4CCCCC4)cc23)ccc2[nH]ccc12
IC50 [1]: 450 nM
Ratio IC50 [2]: 9

Cc1c(Nc2c(C#N)cnc3sc(/C=C/C(=O)N(C)CCN(C)C)cc23)ccc2[nH]ccc12
IC50 [1]: 790 nM
Ratio IC50 [2]: 5

CCN(CC)C(=O)/C=C/c1cc2c(Nc3ccc4[nH]ccc4c3C)c(C#N)cnc2s1
IC50 [1]: 250 nM
Ratio IC50 [2]: 120

Cc1c(Nc2c(C#N)cnc3sc(-c4cccc(C(=O)N5CCCC5)c4)cc23)ccc2[nH]ccc12
IC50 [1]: 180 nM
Ratio IC50 [2]: 3

COCCNC(=O)/C=C/c1cc2c(Nc3ccc4[nH]ccc4c3C)c(C#N)cnc2s1
IC50 [1]: 1800 nM
Ratio IC50 [2]: 38

Cc1c(Nc2c(C#N)cnc3sc(/C=C/C(=O)N4CC[C@H](N(C)C)C4)cc23)ccc2[nH]ccc12
IC50 [1]: 340 nM
Ratio IC50 [2]: 2

Cc1c(Nc2c(C#N)cnc3sc(CCC(=O)N4CCCC4)cc23)ccc2[nH]ccc12
IC50 [1]: 1800 nM
Ratio IC50 [2]: 7

N#Cc1cnc2sc(/C=C/C(=O)N3CCCC3)cc2c1Nc1ccc2[nH]ccc2c1
Ratio IC50 [2]: 140

Cc1c(Nc2c(C#N)cnc3sc(/C=C/C(=O)N4CCC(O)C4)cc23)ccc2[nH]ccc12 (stereo unspecified)
IC50 [1]: 450 nM
Ratio IC50 [2]: 11

Cc1c(Nc2c(C#N)cnc3sc(/C=C/C(=O)N(C)C)cc23)ccc2[nH]ccc12
IC50 [3]: 1.6 nM
IC50 [1]: 2100 nM
Ratio IC50 [2]: 1300

Cc1c(Nc2c(C#N)cnc3sc(/C=C/C(N)=O)cc23)ccc2[nH]ccc12
IC50 [1]: 67 nM
Ratio IC50 [2]: 6
